# Assays:
# [1] = test system: hERG potassium channel; conditions: cited from earlier work
# [2] = test system: H1R Y108^3.33 mutant; design: method as in PMID 25013351; conditions: Y108 single mutation; cited from earlier work
# [3] = test system: H1R F432^6.52 mutant; design: method as in PMID 25013351; conditions: F432 single mutation; cited from earlier work
# [4] = test system: guinea pig H1R F436A; conditions: cited from earlier work
# [5] = test system: H1R W158^4.56 mutant; design: method as in PMID 25013351; conditions: W158 single mutation; cited from earlier work
# [6] = test system: H1R F199^5.47 mutant; design: method as in PMID 25013351; conditions: F199 single mutation; cited from earlier work
# [7] = test system: H1R W428^6.48 mutant; design: method as in PMID 25013351; conditions: W428 single mutation; cited from earlier work
# [8] = test system: H1R Y431^6.51 mutant; design: method as in PMID 25013351; conditions: Y431 single mutant; cited from earlier work
# [9] = test system: H1R N198A; conditions: cited from earlier work
# [10] = biological target: T1, H1R-H450A (Homo sapiens, UniProt P35367, H450A); conditions: H450A vs wild type
# T1 sequence (P35367 whole entry H450A): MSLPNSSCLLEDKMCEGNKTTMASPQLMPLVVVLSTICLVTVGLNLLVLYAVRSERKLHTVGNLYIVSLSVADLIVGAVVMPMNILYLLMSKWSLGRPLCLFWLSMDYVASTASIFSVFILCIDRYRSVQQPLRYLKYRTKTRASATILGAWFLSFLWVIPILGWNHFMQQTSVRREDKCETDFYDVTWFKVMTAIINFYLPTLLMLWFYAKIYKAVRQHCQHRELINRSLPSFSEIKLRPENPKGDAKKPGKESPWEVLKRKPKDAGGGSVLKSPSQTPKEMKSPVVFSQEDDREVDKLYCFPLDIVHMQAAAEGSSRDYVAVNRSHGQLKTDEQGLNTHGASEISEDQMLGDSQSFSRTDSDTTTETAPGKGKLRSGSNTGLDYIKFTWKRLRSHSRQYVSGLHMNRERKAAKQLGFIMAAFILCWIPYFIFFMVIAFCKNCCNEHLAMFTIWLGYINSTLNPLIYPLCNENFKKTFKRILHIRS
# Description: (§1) HEK293 cells were seeded into 24-well culture plates (Corning) at a density of 0.1 million per well and incubated overnight at 37 °C with 5% CO2. […] Twenty-four hours after transfection, the culture media was removed, and transfected cells were harvested and washed with Dulbecco’s phosphate buffered saline (DPBS) buffer (Gibco) twice and then resuspended in Hank’s balanced salt solution (HBSS) buffer (Beyotime) at a density of 1.0 × 10^6 cells per milliliter. […] The accumulation of IP1 was calculated according to a standard dose–response curve in GraphPad Prism 8 (GraphPad Software). Data are represented as the mean ± SEM, n = 3 independent samples.
# [11] = test system: non-H1R targets, including the potassium channel; conditions: cited from earlier work
# [12] = biological target: T1, H1R-H450A; assay: cell-based
# Description: as §1
smiles,measurement,setting,value
COc1ccc(CCN2CCC(Nc3nc4ccccc4n3Cc3ccc(F)cc3)CC2)cc1 [astemizole],hERG potassium channel block,[1],blocks
COc1ccc(CN(CCN(C)C)c2ccccn2)cc1 [mepyramine],Effect of mutation on binding activity,[2],completely disrupted
same,Effect of mutation on H1R affinity,[3],abolished
same,Decrease in affinity by mutation,[4],20 fold
same,Effect of mutation on binding activity,[5],completely disrupted
same,Effect of mutation on H1R affinity,[6],abolished
same,Effect of mutation on H1R affinity,[7],abolished
same,Effect of mutation on binding activity,[8],completely disrupted
same,Effect of mutation on affinity,[9],did not cause obvious affinity loss
CN(c1nccc(=O)[nH]1)C1CCN(c2nc3ccccc3n2Cc2ccc(F)cc2)CC1 [mizolastine],Effect of mutation on ability/efficacy to inhibit H1R signaling,[10],obviously crippled
same,Cross-interaction with non-H1R targets,[11],does not cross-interact with any non-H1R targets
same,Emax,[12],36.1 ± 4.94%
same,IC50,[12],5.14 ± 0.13 nM
